Experimental data published in PubChem BioAssay AID256 (DTP/NCI, 2004).
“And” between values parts separate entries of the source, which are not always exact repeats. Equal entries are not always repeated. Inconclusive results and toxic doses are left out. How the source made its calls: active means survival T/C of 150% or more; inactive means T/C below 125% in these data.

Test system: CD2F1 mice, L1210 leukemia ip, survival T/C
Test: NCI In Vivo Anticancer Drug Screen. Data for tumor model L1210 Leukemia (intraperitoneal) in CD2F1 (CDF1) mice
Settings: higher = longer survival
Procedure, shortened: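 Implant tumor; dose compound or vehicle; measure endpoint in both groups; report treated divided by control.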

[1] = endpoint: mean survival time, dose: 100.0 mg/kg/injection, schedule: Q04DX003 (ip), vehicle: saline with Tween-80
[2] = endpoint: mean survival time, dose: 200.0 mg/kg/injection, schedule: Q04DX003 (ip), vehicle: saline with Tween-80
[3] = endpoint: mean survival time, dose: 400.0 mg/kg/injection, schedule: Q04DX003 (ip), vehicle: saline with Tween-80
[4] = endpoint: mean survival time, dose: 100.0 mg/kg/injection, schedule: Q01DX001 (ip), vehicle: saline with Tween-80
[5] = endpoint: mean survival time, dose: 200.0 mg/kg/injection, schedule: Q01DX001 (ip), vehicle: saline with Tween-80
[6] = endpoint: mean survival time, dose: 400.0 mg/kg/injection, schedule: Q01DX001 (ip), vehicle: saline with Tween-80
[7] = endpoint: mean survival time, dose: 100.0 mg/kg/injection, schedule: Q04DX003 (ip), vehicle: saline
[8] = endpoint: mean survival time, dose: 200.0 mg/kg/injection, schedule: Q04DX003 (ip), vehicle: saline
[9] = endpoint: mean survival time, dose: 400.0 mg/kg/injection, schedule: Q04DX003 (ip), vehicle: saline

Measured: T/C

CC(=O)O[C@H]1C(=O)[C@@]2(C)[C@H]([C@H](OC(=O)c3ccccc3)[C@]3(O)C[C@H](OC(=O)[C@H](O)[C@@H](NC(=O)c4ccccc4)c4ccccc4)C(C)=C1C3(C)C)[C@]1(OC(C)=O)CO[C@@H]1C[C@@H]2O
inactive: endpoint: mean survival time, dose: 1.25 mg/kg/injection, schedule: Q01DX009 (ip), vehicle: Klucel (hydroxypropylcellulose) (HPC) 93 % of control | endpoint: mean survival time, dose: 2.5 mg/kg/injection, schedule: Q01DX009 (ip), vehicle: Klucel (hydroxypropylcellulose) (HPC) 98 % of control | endpoint: mean survival time, dose: 5.0 mg/kg/injection, schedule: Q01DX009 (ip), vehicle: Klucel (hydroxypropylcellulose) (HPC) 113 % of control and 102 % of control | endpoint: mean survival time, dose: 10.0 mg/kg/injection, schedule: Q01DX009 (ip), vehicle: Klucel (hydroxypropylcellulose) (HPC) 115 % of control | endpoint: mean survival time, dose: 40.0 mg/kg/injection, schedule: Q01DX009 (ip), vehicle: Klucel (hydroxypropylcellulose) (HPC) 107 % of control

O=C(O)c1ccccc1NCc1ccccc1
inactive: [1] 100 % of control | [2] 96 % of control | [3] 87 % of control

CSc1ncc(N=C=O)c(=O)[nH]1
inactive: [4] 94 % of control | [5] 94 % of control

O=C1C2C(c3ccccc3)=C(c3ccccc3)C1C1(c3ccccc3)C(c3ccccc3)=CC(=O)C21 (stereo unspecified)
inactive: endpoint: mean survival time, dose: 100.0 mg/kg/injection, schedule: Q01DX001 (ip), vehicle: Klucel (hydroxypropylcellulose) (HPC) 89 % of control | endpoint: mean survival time, dose: 200.0 mg/kg/injection, schedule: Q01DX001 (ip), vehicle: Klucel (hydroxypropylcellulose) (HPC) 93 % of control | endpoint: mean survival time, dose: 400.0 mg/kg/injection, schedule: Q01DX001 (ip), vehicle: Klucel (hydroxypropylcellulose) (HPC) 93 % of control

Cc1ccc(S(=O)(=O)OCC(O)C(O)C(O)C(O)CO[N+](=O)[O-])cc1 (stereo unspecified)
inactive: [4] 101 % of control | [5] 101 % of control | [6] 101 % of control

CN(C(=O)CCC(=O)N(C)c1ccccc1)c1ccccc1
inactive: [4] 103 % of control | [5] 92 % of control | [6] 92 % of control

C[N+]1(C)CCC(=O)CC1
inactive: endpoint: mean survival time, dose: 100.0 mg/kg/injection, schedule: Q01DX009 (ip), vehicle: saline with Tween-80 101 % of control

O=C(SC(=O)c1ccccc1)c1ccccc1
inactive: [1] 97 % of control | [2] 100 % of control | [3] 94 % of control

Cc1cc(=O)n(Cc2ccccc2)n1-c1ccccc1
inactive: endpoint: mean survival time, dose: 25.0 mg/kg/injection, schedule: Q04DX002 (ip), vehicle: saline with Tween-80 97 % of control | endpoint: mean survival time, dose: 50.0 mg/kg/injection, schedule: Q04DX002 (ip), vehicle: saline with Tween-80 100 % of control | endpoint: mean survival time, dose: 100.0 mg/kg/injection, schedule: Q04DX002 (ip), vehicle: saline with Tween-80 87 % of control | [1] 98 % of control

O=C1CCC2(CCC(=O)O2)O1
inactive: [7] 94 % of control | [8] 100 % of control | [9] 93 % of control

CCc1c(Cl)c(C)c(Cl)c(O)c1Cl
inactive: [1] 96 % of control | [2] 88 % of control

Clc1ccccc1C(Nc1cnccn1)Nc1cnccn1
inactive: endpoint: median survival time, dose: 25.0 mg/kg/injection, schedule: Q01DX009 (ip), vehicle: saline with Tween-80 97 % of control and 102 % of control | endpoint: median survival time, dose: 50.0 mg/kg/injection, schedule: Q01DX009 (ip), vehicle: saline with Tween-80 97 % of control and 110 % of control | endpoint: median survival time, dose: 100.0 mg/kg/injection, schedule: Q01DX009 (ip), vehicle: saline with Tween-80 108 % of control and 109 % of control | endpoint: median survival time, dose: 200.0 mg/kg/injection, schedule: Q01DX009 (ip), vehicle: saline with Tween-80 113 % of control and 124 % of control | endpoint: median survival time, dose: 400.0 mg/kg/injection, schedule: Q01DX009 (ip), vehicle: saline with Tween-80 92 % of control

c1ccc(N/N=C(/c2ccccc2)c2ccccn2)cc1
inactive: [4] 103 % of control | [5] 111 % of control | [6] 105 % of control

CCCC1=NC(C)(C)CO1
inactive: [7] 92 % of control | [8] 94 % of control | [9] 105 % of control

CCCCS(CCCC)=NS(=O)(=O)c1ccc(C)cc1
inactive: endpoint: mean survival time, dose: 50.0 mg/kg/injection, schedule: Q01DX009 (ip), vehicle: Klucel (hydroxypropylcellulose) (HPC) 90 % of control | endpoint: mean survival time, dose: 100.0 mg/kg/injection, schedule: Q01DX009 (ip), vehicle: Klucel (hydroxypropylcellulose) (HPC) 94 % of control | endpoint: mean survival time, dose: 200.0 mg/kg/injection, schedule: Q01DX009 (ip), vehicle: Klucel (hydroxypropylcellulose) (HPC) 90 % of control
